One block for each compound: values may come before it.
Tests used:
[1] = stability of the solid form under hygroscopic conditions (higher relative humidity); assay type: physicochemical; details: higher relative humidity conditions of more than 60% RH
Description: (§1) The present application provides a stable amorphous form of Venetoclax devoid of the problems indicated in the prior art and suitable for powder handling and downstream processes.

[2] = stability of the solid form under mechanical stress (grinding and milling); assay type: physicochemical
Description: as §1

[3] = tested on: tumor cells that overexpress BCL-2; details: nonclinical studies; cited from earlier work
[4] = stability of the crystalline form over time; assay type: physicochemical
Description: In an embodiment, drying crystalline Form RT2 of Venetoclax may be carried out at temperatures and times sufficient to achieve desired quality of product. Drying may be carried out at about 30° C. or above at which crystalline form RT2 is stable and for any time period required for obtaining a desired quality, such as from about 5 minutes to 10 hours or longer. Crystalline form RT2 is stable for 3 months period or longer.

stability under hygroscopic conditions [1]: stable | stability under mechanical stress [2]: highly stable
Compound: CC1(C)CCC(CN2CCN(c3ccc(C(=O)NS(=O)(=O)c4ccc(NCC5CCOCC5)c([N+](=O)[O-])c4)c(Oc4cnc5[nH]ccc5c4)c3)CC2)=C(c2ccc(Cl)cc2)C1 [Amorphous form of Venetoclax]

Compound: CC1(C)CCC(CN2CCN(c3ccc(C(=O)NS(=O)(=O)c4ccc(NCC5CCOCC5)c([N+](=O)[O-])c4)c(Oc4cnc5[nH]ccc5c4)c3)CC2)=C(c2ccc(Cl)cc2)C1 [Venetoclax]
cytotoxic activity [3]: demonstrated cytotoxic activity

period for which the crystalline form is stable [4]: ≥ 3 months
Compound: CC1(C)CCC(CN2CCN(c3ccc(C(=O)NS(=O)(=O)c4ccc(NCC5CCOCC5)c([N+](=O)[O-])c4)c(Oc4cnc5[nH]ccc5c4)c3)CC2)=C(c2ccc(Cl)cc2)C1 [Crystalline form RT2]

Reference: patent publication US20190185471A1, “SOLID FORMS OF VENETOCLAX AND PROCESSES FOR THE PREPARATION OF VENETOCLAX” (DR. REDDY'S LABORATORIES LIMITED, priority 2016, published 2019)
